The test deals with Tomato seeds of hybrid tomato var. Royal Mounty. Nature of the test: In vitro tomato seedling root growth bioassay (agar medium). Type of test: in vivo. The conditions noted are these: day 7; control water. The procedure:
Tomato seeds of hybrid tomato var. Royal Mounty were surface sterilized with 10% bleach solution for 10 minutes followed by 3 rinses with sterilized distilled water. Seeds were then dried in a laminar air flow hood for 3 hours. Seeds were then placed in petri-dishes on solidified agar medium containing various concentrations of different sources of the LCO illustrated in FIG. 1b (manufactured by Darmstadt, Germany and Grenoble, France) (also referred to in the examples as the “soybean LCO”) and the inventive CO illustrated in FIG. 2a (also referred to in the examples as the “pea CO” or “CO-V”). Seedling roots were measured by a hand ruler and root fresh weights were taken in a micro balance at day 7. Growth study was done in a growth chamber at 22° C.

1 substance from patent US12185720B2, “Chitooligosaccharides and methods for use in enhancing plant growth” (NOVOZYMES BIOAG A/S, priority 2011, dated 2025) can be followed below.

Consider “LCO-V(C18:1, MeFuc) [Soybean LCO, reference compound]”, for which the “root fresh weight, compared to control seedlings” value was “significantly better than control seedlings” and the “root length, compared to control seedlings” value is on record as “significantly better than control seedlings”.
